Patent US20020137929A1, “1 - (3-heterocyclylphenyl) isothiourea, -isourea, -guanidine and -amidine herbicidal agents” (Intellectual Property Department, BASF Aktiengesellschaft, priority 1998, published 2002)

Key:
AMBEL (Ragweed, Common) = test: Postemergence herbicidal evaluation; format: in vivo, Ambrosia artemisifolia
Method in brief: (§1)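 Visual 0–9 rating versus control (stand, vigor, malformation, size, chlorosis, overall appearance), taken four to five weeks post-spray. Two-week-old seedlings received roughly 0.0156–0.500 kg/ha active in acetone/water (50/50) with 0.5% TWEEN 20 via nozzle at 40 psi.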

CASOB (Sicklepod) = test: Postemergence herbicidal evaluation; format: in vivo, Cassia obtusifolia
Method in brief: as §1

GALAP (Galium) [1] = test: Postemergence herbicidal evaluation; format: in vivo, Galium aparine
Method in brief: as §1

[2] = tested on: GLXMAW (Soybean, Williams); test: Postemergence herbicidal evaluation; format: in vivo, Glycine max, (L.) Merr. cv Williams
Method in brief: as §1

[3] = tested on: TRZAWR (Wheat, Winter, cv Riband); test: Postemergence herbicidal evaluation; format: in vivo, Triticum aestivum
Method in brief: as §1

GALAP (Galium) [4] = test: Preemergence herbicidal evaluation; format: in vivo, Galium aparine; settings: rated 4-5 weeks after treatment
Method in brief: (§2)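 Scores use a 0–9 visual scale covering stand, vigor, malformation, size and chlorosis relative to controls, rated four to five weeks after treatment. Before emergence, soil-planted seeds were sprayed with compound in aqueous acetone at roughly 0.0156–0.500 kg/ha and held in the greenhouse.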

SETVI (Foxtail, Green) = test: Preemergence herbicidal evaluation; format: in vivo, Setaria viridis; settings: rated 4-5 weeks after treatment
Method in brief: as §2

ORYSAT (Rice, Tebonnet) = test: Preemergence herbicidal evaluation; format: in vivo, Oryza sativa, (L.) Tebonnet; settings: rated 4-5 weeks after treatment
Method in brief: as §2

[5] = tested on: ECHORC (Watergrass (Calif.)); test: Preemergence weed control under flooded paddy conditions; format: in vivo, Echinochloa oryzoides; settings: rated 3-4 weeks after treatment
Method in brief: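 First, seeds or propagules go into the top 0.5 cm of silt loam; next, water is held 1.5 to 3 cm over the soil; then compound (50/50 acetone/water) is pipetted into it at about 0.0313 to 0.500 kg/ha; finally plants are rated visually 0-9 after three to four weeks.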

CYPSE (Flatsedge) = test: as above; format: in vivo, Cyperus serotinus; settings: rated 3-4 weeks after treatment
Method in brief: (§3)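 Ratings on a 0-9 visual scale cover stand, vigor, malformation, size, chlorosis and overall appearance relative to a control, taken three to four weeks post-treatment. Application was into flood water over freshly sown silt loam at roughly 0.0313 to 0.500 kg/ha.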

MOOVA (Monochoria) = test: as above; format: in vivo, Monochoria vaginalis; settings: rated 3-4 weeks after treatment
Method in brief: as §3

[6] = tested on: SAGPY (Arrowhead (Pygmaea)); test: as above; format: in vivo, Sagittaria pygmaea; settings: rated 3-4 weeks after treatment
Method in brief: as §3

[7] = tested on: ECHORC (Watergrass (Calif.)); test: Postemergence weed control under flooded paddy conditions; format: in vivo, Echinochloa oryzoides; settings: postemergence weeds, 3-4 weeks after treatment
Method in brief: (§4)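 Injury ratings (0–9 scale covering stand, vigor, malformation, size, chlorosis and overall appearance versus control) were made three to four weeks after treatment. Test material, about 0.0313 to 0.500 kg/ha a.i. in 50/50 v/v aqueous/acetone, was added to flood water 1.5 to 3 cm deep over 3 to 5 cm weeds and 1.5 to 2.5 leaf rice.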

[8] = tested on: SAGPY (Arrowhead (Pygmaea)); test: as above; format: in vivo, Sagittaria pygmaea; settings: postemergence weeds, 3-4 weeks after treatment
Method in brief: as §4

Cn1c(C(F)(F)F)cc(=O)n(-c2cc(N=C3SCC(=O)N3CC(=O)OC(C)(C)C)c(Cl)cc2F)c1=O [Compound 43, tert-Butyl 2-{{2-chloro-5-[3,6-dihydro-3-methyl-2,6-dioxo-4-(trifluoromethyl)-1(2H)-pyrimidinyl]-4-fluorophenyl}imino}-4-oxo-3-thiazolidineacetate]
Postemergence herbicidal rating AMBEL (AMBEL (Ragweed, Common); Rate 0.0158 kg/ha): 9.0
Postemergence herbicidal rating AMBEL (AMBEL (Ragweed, Common); Rate 0.0315 kg/ha): 9.0
Postemergence herbicidal rating AMBEL (AMBEL (Ragweed, Common); Rate 0.0630 kg/ha): 9.0
Postemergence herbicidal rating CASOB (CASOB (Sicklepod); Rate 0.0158 kg/ha): 9.0
Postemergence herbicidal rating CASOB (CASOB (Sicklepod); Rate 0.0315 kg/ha): 9.0
Postemergence herbicidal rating CASOB (CASOB (Sicklepod); Rate 0.0630 kg/ha): 9.0
Postemergence herbicidal rating GALAP (GALAP (Galium) [1]; Rate 0.0158 kg/ha): 0.0
Postemergence herbicidal rating GALAP (GALAP (Galium) [1]; Rate 0.0315 kg/ha): 4.0
Postemergence herbicidal rating GALAP (GALAP (Galium) [1]; Rate 0.0630 kg/ha): 4.0
Postemergence herbicidal rating GLXMAW ([2]; Rate 0.0158 kg/ha): 7.5
Postemergence herbicidal rating GLXMAW ([2]; Rate 0.0315 kg/ha): 7.0
Postemergence herbicidal rating GLXMAW ([2]; Rate 0.0630 kg/ha): 7.0
Postemergence herbicidal rating TRZAWR ([3]; Rate 0.0158 kg/ha): 3.0
Postemergence herbicidal rating TRZAWR ([3]; Rate 0.0315 kg/ha): 3.5
Postemergence herbicidal rating TRZAWR ([3]; Rate 0.0630 kg/ha): 4.0
Preemergence herbicidal rating GALAP (GALAP (Galium) [4]; rate 0.0156 kg/ha): 0.0
Preemergence herbicidal rating GALAP (GALAP (Galium) [4]; rate 0.0313 kg/ha): 0.0
Preemergence herbicidal rating GALAP (GALAP (Galium) [4]; rate 0.0625 kg/ha): 0.0
Preemergence herbicidal rating GALAP (GALAP (Galium) [4]; rate 0.1250 kg/ha): 9.0
Preemergence herbicidal rating GALAP (GALAP (Galium) [4]; rate 0.2500 kg/ha): 9.0
Preemergence herbicidal rating SETVI (SETVI (Foxtail, Green); rate 0.0156 kg/ha): 0.0
Preemergence herbicidal rating SETVI (SETVI (Foxtail, Green); rate 0.0313 kg/ha): 0.0
Preemergence herbicidal rating SETVI (SETVI (Foxtail, Green); rate 0.0625 kg/ha): 0.0
Preemergence herbicidal rating SETVI (SETVI (Foxtail, Green); rate 0.1250 kg/ha): 5.0
Preemergence herbicidal rating SETVI (SETVI (Foxtail, Green); rate 0.2500 kg/ha): 9.0
Preemergence herbicidal rating ORYSAT (ORYSAT (Rice, Tebonnet); rate 0.0156 kg/ha): 0.0
Preemergence herbicidal rating ORYSAT (ORYSAT (Rice, Tebonnet); rate 0.0313 kg/ha): 0.0
Preemergence herbicidal rating ORYSAT (ORYSAT (Rice, Tebonnet); rate 0.0625 kg/ha): 0.0
Preemergence herbicidal rating ORYSAT (ORYSAT (Rice, Tebonnet); rate 0.1250 kg/ha): 0.0
Preemergence herbicidal rating ORYSAT (ORYSAT (Rice, Tebonnet); rate 0.2500 kg/ha): 0.0
Herbicidal rating ECHORC ([5]; 0.0313 kg/ha): 5.0
Herbicidal rating ECHORC ([5]; 0.0625 kg/ha): 6.0
Herbicidal rating ECHORC ([5]; 0.1250 kg/ha): 7.0
Herbicidal rating ECHORC ([5]; 0.2500 kg/ha): 9.0
Herbicidal rating CYPSE (CYPSE (Flatsedge); 0.0313 kg/ha): 5.0
Herbicidal rating CYPSE (CYPSE (Flatsedge); 0.0625 kg/ha): 5.0
Herbicidal rating CYPSE (CYPSE (Flatsedge); 0.1250 kg/ha): 8.0
Herbicidal rating CYPSE (CYPSE (Flatsedge); 0.2500 kg/ha): 9.0
Herbicidal rating MOOVA (MOOVA (Monochoria); 0.0313 kg/ha): 9.0
Herbicidal rating MOOVA (MOOVA (Monochoria); 0.0625 kg/ha): 9.0
Herbicidal rating MOOVA (MOOVA (Monochoria); 0.1250 kg/ha): 9.0
Herbicidal rating MOOVA (MOOVA (Monochoria); 0.2500 kg/ha): 9.0
Herbicidal rating SAGPY ([6]; 0.0313 kg/ha): 7.0
Herbicidal rating SAGPY ([6]; 0.0625 kg/ha): 7.0
Herbicidal rating SAGPY ([6]; 0.1250 kg/ha): 7.0
Herbicidal rating SAGPY ([6]; 0.2500 kg/ha): 9.0
Herbicidal rating ECHORC ([7]; rate 0.0313 kg/ha): 5.0
Herbicidal rating ECHORC ([7]; rate 0.0825 kg/ha): 6.0
Herbicidal rating ECHORC ([7]; rate 0.1250 kg/ha): 7.0
Herbicidal rating ECHORC ([7]; rate 0.2500 kg/ha): 9.0
Herbicidal rating SAGPY ([8]; rate 0.0313 kg/ha): 7.0
Herbicidal rating SAGPY ([8]; rate 0.0825 kg/ha): 7.0
Herbicidal rating SAGPY ([8]; rate 0.1250 kg/ha): 7.0
Herbicidal rating SAGPY ([8]; rate 0.2500 kg/ha): 9.0
